The target in one test is T1, human 5-HT1A receptor (Homo sapiens, UniProt P08908).
T1 construct: expressed in transfected cells
T1 sequence (P08908 1-422): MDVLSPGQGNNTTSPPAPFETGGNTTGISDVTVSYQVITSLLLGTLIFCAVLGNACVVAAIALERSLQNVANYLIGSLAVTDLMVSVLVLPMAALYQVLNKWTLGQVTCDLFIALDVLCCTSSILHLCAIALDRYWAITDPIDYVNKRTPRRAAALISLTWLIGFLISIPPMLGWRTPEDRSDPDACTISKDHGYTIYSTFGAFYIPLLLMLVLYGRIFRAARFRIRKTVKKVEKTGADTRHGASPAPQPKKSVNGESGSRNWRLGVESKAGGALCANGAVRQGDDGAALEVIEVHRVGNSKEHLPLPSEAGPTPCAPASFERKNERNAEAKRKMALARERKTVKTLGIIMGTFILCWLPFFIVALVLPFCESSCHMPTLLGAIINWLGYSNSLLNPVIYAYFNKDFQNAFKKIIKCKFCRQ
The experiment in a line: [3H]8-OH-DPAT competition binding to cloned human 5-HT1A receptor (CHO cell membranes). To be noted: [3H]8-OH-DPAT 1.5 nM; CHO cells expressing human 5-HT1A.

The target in the next test is T2, serotonin transporter (Rattus norvegicus, UniProt P31652).
T2 construct: frontal cortical membranes prepared from male Sprague-Dawley rats; from tissue; host or cells: frontal cortical membranes of male Sprague-Dawley rats
T2 sequence (P31652 whole entry): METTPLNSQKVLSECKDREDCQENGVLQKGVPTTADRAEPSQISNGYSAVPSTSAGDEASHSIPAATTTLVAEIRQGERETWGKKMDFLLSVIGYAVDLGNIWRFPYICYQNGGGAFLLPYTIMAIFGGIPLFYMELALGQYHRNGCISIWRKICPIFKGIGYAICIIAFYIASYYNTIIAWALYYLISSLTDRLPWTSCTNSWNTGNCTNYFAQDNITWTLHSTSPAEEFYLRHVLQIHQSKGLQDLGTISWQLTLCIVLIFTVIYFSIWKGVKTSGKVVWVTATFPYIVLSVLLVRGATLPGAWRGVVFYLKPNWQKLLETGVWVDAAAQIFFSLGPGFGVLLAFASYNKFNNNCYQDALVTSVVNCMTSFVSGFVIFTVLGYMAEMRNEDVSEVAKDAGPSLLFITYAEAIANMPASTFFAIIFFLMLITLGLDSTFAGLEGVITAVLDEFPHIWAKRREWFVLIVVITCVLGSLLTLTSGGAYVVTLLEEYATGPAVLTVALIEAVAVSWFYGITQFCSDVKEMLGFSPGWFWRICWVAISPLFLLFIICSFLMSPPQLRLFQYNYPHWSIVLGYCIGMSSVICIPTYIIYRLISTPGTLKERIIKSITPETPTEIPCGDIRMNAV
The experiment in a line: 3H-paroxetine binding to serotonin transporter in rat frontal cortical membranes. Further details: species or system male Sprague-Dawley rats.

Experimental for human 5-HT1A receptor: A stable Chinese hamster ovary cell line expressing the human 5-HT1A receptor subtype (5H-HT1A .CHO cells) was employed throughout this procedure. Cells were maintained in DMEM supplemented with 10% fetal calf serum, non-essential amino acids and penicillin/ streptomycin.
Cells were grown to 95-100% confluency as a monolayer before membranes were harvested for binding studies. Cells were gently scraped from the culture plates, transferred to centrifuge tubes, and washed twice by centrifugation (at 2000 rpm for 10 min., 4° C.) in buffer (50 mM Tris; pH 7.5). The resulting pellets were aliquoted and stored at -80° C. until needed. On the day of assay, the cells were thawed on ice, and resuspended in buffer. Studies were conducted using [^3 H]8-OH-DPAT as the radioligand. The binding assay was performed in 96 well microtiter plates in a final total volume of 250 μL of buffer. […] Non-specific binding was determined in the presence of 10 μM 5HT. Saturation analysis was conducted by using [^3 H]8-OH-DPAT at concentrations ranging from 0.3-30 nM. Following a 30 minute incubation at room temperature, the reaction was terminated by the addition of ice cold buffer and rapid filtration using a M-96 Brandel Cell Harvester through a GF/B filter presoaked for 30 minutes in 0.5% polyethyleneimine.
Experimental for serotonin transporter: Briefly, frontal cortical membranes prepared from male Sprague-Dawley rats were incubated with ^3 H-paroxetine (0.1 nM) for 60 min at 25° C. All tubes also contained either vehicle, test compound (one to eight concentrations), or a saturating concentration of fluoxetine (10 μM) to define specific binding. All reactions were terminated by the addition of ice cold Tris buffer followed by rapid filtration using a Tom Tech filtration device to separate bound from free ^3 H-paroxetine.

In the case of `c1ccc(CN2CC(CNCCCCc3c[nH]c4ccccc34)Oc3ccccc32)cc1` (centres unmarked) [Example 4, (4-Benzyl-3,4-dihydro-2H-benzo[1,4]oxazin-2ylmethyl)-[3-(1H-indo-3-yl)-butyl]-amine], the Ki at human 5-HT1A receptor was 76.1 nM; at serotonin transporter, 81 nM.

By Ki is commonly meant a measure of affinity in units of concentration, obtained from inhibition or displacement. A low value points to tighter binding.

Values taken from patent US6313114A, “3,4-Dihydro-2H-benzo[1,4]oxazinyl-methyl)-[3-(1H-indol-3yl)-alkyl]- amines” (American Home Products Corp, priority 1999, dated 2001).
